Data set [1] is described as follows: Retardation factor in ethyl acetate-pyridine-acetic acid-water at 5:5:1:3 ratio by TLC. The format is physicochemical. As to conditions: buffer.
A short description of data set [2]: Retardation factor in 2-butanol-water at 1:1 ratio by TLC. Type of data set: physicochemical. As to conditions: buffer.
The nature of data set [3]: Inhibition of LRF-induced luteinizing hormone secretion in rat anterior pituitary cells relative to [des-His2,D-Ala6]-LRF. The format is functional, Pituitary gland cell.
Data set [4] is described as follows: Retardation factor in 1-butanol-ethyl acetate-acetic acid-water at 1:1:1:1 ratio by TLC. Type of data set: physicochemical. As to conditions: buffer.
Data set [5] in a line: Retardation factor in 2-butanol-0.1 N acetic acid at 1:1 ratio by TLC. Type of data set: physicochemical.
Data set [6] is described as follows: Retardation factor in 1-butanol-acetic acid-water at 4:1:5 ratio by TLC. The format is physicochemical. As to conditions: buffer.
The nature of data set [7]: Retardation factor in 1-butanol-2-propanol-1 N ammonium hydroxide-ethyl acetate at 1:1:2.5:1 ratio by TLC. The format is physicochemical.
Data set [8] can be described thus: Retardation factor in 1-butanol-pyridine-0.1% acetic acid at 5:3:11 ratio by TLC. Type of data set: physicochemical.
A short description of data set [9]: Retardation factor in 2-butanol-0.1 N ammonium hydroxide at 1:1 ratio by TLC. Type of data set: physicochemical.
The nature of data set [10]: Increase in luteinizing hormone secretion in rat anterior pituitary cells relative to luteinizing hormone releasing factor. The format is functional, Pituitary gland cell.

*1 amine or outer side, *2 acyl side, *3 side chain or, on linkers, in order; H or OH if unused. Where a SMILES comes first, the peptide text is derived from it. [ ]: non-standard residue; d: D form. X1 = CCCCCCCCCCCCNCCC[C@@H](N[*:1])C(=O)[*:2]; pGlu = O=C1CC[C@@H](C(=O)O)N1

Regarding `CC(C)C[C@H](NC(=O)[C@@H](CCCCN)NC(=O)[C@H](Cc1ccc(O)cc1)NC(=O)[C@H](CO)NC(=O)[C@H](Cc1c[nH]c2ccccc12)NC(=O)[C@@H]1CCC(=O)N1)C(=O)N[C@@H](CCCNC(=N)N)C(=O)N1CCC[C@H]1C(=O)NCC(N)=O` ([pGlu]WSY[dK]LRPG-NH2), the Rf stood at 0.71 in data set [1]; 0.25 in data set [2]; 0.73 in [4]; 0.33 in [5]; 0.35 in data set [6]; 0.26 in data set [7]. Further, the Rf in [8] is listed as 0.47. Also, the “fold change (FC)” value in data set [3] stood at 123.
`CCCCCCCCCCCCNCCC[C@@H](NC(=O)[C@H](Cc1ccc(O)cc1)NC(=O)[C@H](CO)NC(=O)[C@H](Cc1c[nH]c2ccccc12)NC(=O)[C@@H]1CCC(=O)N1)C(=O)N[C@@H](CC(C)C)C(=O)N[C@@H](CCCNC(=N)N)C(=O)N1CCC[C@H]1C(=O)NCC` ([pGlu]WSY[X1]LRP-NHEt): the Rf in data set [9] is given as 0.46; in [1], 0.55; in data set [2] it was 0.47; in data set [4], 0.84; in data set [5], 0.51; in data set [6], 0.64. Also, the figures for the Rf in [7] and in data set [8] were 0.49 and 0.71, respectively. Also, the “fold change (FC)” value in data set [3] is recorded as 153.
Consider `CC(=O)NCCC[C@@H](NC(=O)[C@H](Cc1ccc(O)cc1)NC(=O)[C@H](CO)NC(=O)[C@H](Cc1c[nH]c2ccccc12)NC(=O)[C@H](Cc1cnc[nH]1)NC(=O)[C@@H]1CCC(=O)N1)C(=O)N[C@@H](CC(C)C)C(=O)N[C@@H](CCCNC(=N)N)C(=O)N1CCC[C@H]1C(=O)NCC(N)=O`, for which the Rf in data set [9] is on record as 0.34; in data set [1], 0.66; in data set [2], 0.33; in data set [4], 0.7; in data set [5], 0.34; in data set [6] it was 0.38. For the same compound, the figures for the Rf in [7] and in data set [8] were 0.43 and 0.57, respectively. Further, the “fold change (FC)” value in data set [10] amounted to 101.
Take `CCNC(=O)[C@@H]1CCCN1C(=O)[C@H](CCCNC(=N)N)NC(=O)[C@H](CC(C)C)NC(=O)[C@@H](CCCCN)NC(=O)[C@H](Cc1ccc(O)cc1)NC(=O)[C@H](CO)NC(=O)[C@H](Cc1c[nH]c2ccccc12)NC(=O)[C@H](Cc1cnc[nH]1)NC(=O)[C@@H]1CCC(=O)N1`: the Rf in [1] is on record as 0.63; in [4], 0.66; in data set [5], 0.27; in data set [6] it was 0.4; in data set [7], 0.31; in data set [8], 0.53. In [10], the “fold change (FC)” value was 1726.
Regarding `CCCCCCCCCCCCNCCC[C@@H](NC(=O)[C@H](Cc1ccc(O)cc1)NC(=O)[C@H](CO)NC(=O)[C@H](Cc1c[nH]c2ccccc12)NC(=O)[C@H](Cc1cnc[nH]1)NC(=O)[C@@H]1CCC(=O)N1)C(=O)N[C@@H](CC(C)C)C(=O)N[C@@H](CCCNC(=N)N)C(=O)N1CCC[C@H]1C(=O)NCC`, the Rf in data set [9] worked out at 0.37; in data set [1] it was 0.38; in data set [2] it was 0.4; in data set [4], 0.72; in [5], 0.43; in data set [6] it was 0.45. For the same compound, the Rf was 0.46 in data set [7] and 0.62 in data set [8]. Moreover, in data set [10], the “fold change (FC)” value is listed as 490.
For `CCCCCCCCCCCCNCCC[C@@H](NC(=O)[C@H](Cc1ccc(O)cc1)NC(=O)[C@H](CO)NC(=O)[C@H](Cc1c[nH]c2ccccc12)NC(=O)[C@H](Cc1cnc[nH]1)NC(=O)[C@@H]1CCC(=O)N1)C(=O)N[C@@H](CC(C)C)C(=O)N[C@@H](CCCNC(=N)N)C(=O)N1CCC[C@H]1C(=O)NCC(N)=O`, the Rf in [9] stood at 0.36; in [1] it was 0.34; in [2], 0.38; in data set [4], 0.72; in data set [5], 0.39; in data set [6], 0.4. The Rf in data set [7] was determined as 0.43; in data set [8] it was 0.59. For the same compound, the “fold change (FC)” value in data set [10] came to 290.
For `CC(C)C[C@H](NC(=O)[C@@H](CCCN)NC(=O)[C@H](Cc1ccc(O)cc1)NC(=O)[C@H](CO)NC(=O)[C@H](Cc1c[nH]c2ccccc12)NC(=O)[C@H](Cc1cnc[nH]1)NC(=O)[C@@H]1CCC(=O)N1)C(=O)N[C@@H](CCCNC(=N)N)C(=O)N1CCC[C@H]1C(=O)NCC(N)=O`, the Rf in data set [1] is reported as 0.6; in [4], 0.62; in data set [5], 0.24; in data set [6] it was 0.35; in [7], 0.25; in data set [8] it was 0.45. In addition, the “fold change (FC)” value in [10] was found to be 182.
As to `CC(C)C[C@H](NC(=O)[C@@H](CCCN)NC(=O)[C@H](Cc1ccc(O)cc1)NC(=O)[C@H](CO)NC(=O)[C@H](Cc1c[nH]c2ccccc12)NC(=O)[C@@H]1CCC(=O)N1)C(=O)N[C@@H](CCCNC(=N)N)C(=O)N1CCC[C@H]1C(=O)NCC(N)=O`, the Rf came to 0.67 in [1]; 0.24 in data set [2]; 0.74 in data set [4]; 0.31 in data set [5]; 0.46 in data set [6]; 0.28 in [7]. Also, the Rf in data set [8] is listed as 0.54. In addition, the “fold change (FC)” value in data set [3] came to 134.
As for `CCNC(=O)[C@@H]1CCCN1C(=O)[C@H](CCCNC(=N)N)NC(=O)[C@H](CC(C)C)NC(=O)[C@@H](CCCCN)NC(=O)[C@H](Cc1ccc(O)cc1)NC(=O)[C@H](CO)NC(=O)[C@H](Cc1c[nH]c2ccccc12)NC(=O)[C@@H]1CCC(=O)N1`, the Rf in [1] worked out at 0.71; in [2], 0.31; in [4], 0.76; in data set [5], 0.35; in [6], 0.49; in data set [7], 0.37. Further, the Rf in [8] is listed as 0.59. Moreover, the “fold change (FC)” value in data set [3] amounted to 97.
In the case of `CC(C)C[C@H](NC(=O)[C@@H](CCCCN)NC(=O)[C@H](Cc1ccc(O)cc1)NC(=O)[C@H](CO)NC(=O)[C@H](Cc1c[nH]c2ccccc12)NC(=O)[C@H](Cc1cnc[nH]1)NC(=O)[C@@H]1CCC(=O)N1)C(=O)N[C@@H](CCCNC(=N)N)C(=O)N1CCC[C@H]1C(=O)NCC(N)=O`, the Rf is 0.58 in data set [1]; 0.57 in data set [4]; 0.24 in data set [5]; 0.31 in [6]; 0.24 in data set [7]; 0.42 in [8]. Further, the “fold change (FC)” value in data set [10] stood at 383.
For `CCNC(=O)[C@@H]1CCCN1C(=O)[C@H](CCCNC(=N)N)NC(=O)[C@H](CC(C)C)NC(=O)[C@@H](CCCN)NC(=O)[C@H](Cc1ccc(O)cc1)NC(=O)[C@H](CO)NC(=O)[C@H](Cc1c[nH]c2ccccc12)NC(=O)[C@H](Cc1cnc[nH]1)NC(=O)[C@@H]1CCC(=O)N1`, the Rf in [1] is 0.69; in data set [4], 0.65; in data set [5] it was 0.29; in [6], 0.26; in data set [7], 0.34; in data set [8], 0.47. Also, the “fold change (FC)” value in data set [10] came to 682.
Turning to `CCCCCCCCCCCCNCCCC[C@@H](NC(=O)[C@H](Cc1ccc(O)cc1)NC(=O)[C@H](CO)NC(=O)[C@H](Cc1c[nH]c2ccccc12)NC(=O)[C@H](Cc1cnc[nH]1)NC(=O)[C@@H]1CCC(=O)N1)C(=O)N[C@@H](CC(C)C)C(=O)N[C@@H](CCCNC(=N)N)C(=O)N1CCC[C@H]1C(=O)NCC(N)=O`, the Rf in data set [9] worked out at 0.37; in data set [1], 0.35; in data set [2] it was 0.37; in data set [4] it was 0.74; in data set [5] it was 0.38; in data set [6], 0.4. For the same compound, the Rf in data set [7] is recorded as 0.44; in data set [8], 0.56. Also, the “fold change (FC)” value in data set [10] worked out at 164.
In the case of `CC(=O)NCCCC[C@@H](NC(=O)[C@H](Cc1ccc(O)cc1)NC(=O)[C@H](CO)NC(=O)[C@H](Cc1c[nH]c2ccccc12)NC(=O)[C@H](Cc1cnc[nH]1)NC(=O)[C@@H]1CCC(=O)N1)C(=O)N[C@@H](CC(C)C)C(=O)N[C@@H](CCCNC(=N)N)C(=O)N1CCC[C@H]1C(=O)NCC(N)=O`, the Rf in [9] turned out to be 0.33; in [1], 0.69; in data set [2] it was 0.34; in data set [4] it was 0.73; in data set [5] it was 0.34; in [6], 0.39. Further, the Rf in data set [7] came to 0.43; in data set [8], 0.56. In addition, the “fold change (FC)” value in [10] is 274.
Take `CCNC(=O)[C@@H]1CCCN1C(=O)[C@H](CCCNC(=N)N)NC(=O)[C@H](CC(C)C)NC(=O)[C@@H](CCCN)NC(=O)[C@H](Cc1ccc(O)cc1)NC(=O)[C@H](CO)NC(=O)[C@H](Cc1c[nH]c2ccccc12)NC(=O)[C@@H]1CCC(=O)N1`: the Rf came out at 0.71 in [1]; 0.28 in [2]; 0.78 in data set [4]; 0.36 in [5]; 0.54 in data set [6]; 0.38 in data set [7]. The Rf in [8] is 0.63. The “fold change (FC)” value in data set [3] is recorded as 105.
Turning to `CCCCCCCCCCCCNCCCC[C@@H](NC(=O)[C@H](Cc1ccc(O)cc1)NC(=O)[C@H](CO)NC(=O)[C@H](Cc1c[nH]c2ccccc12)NC(=O)[C@H](Cc1cnc[nH]1)NC(=O)[C@@H]1CCC(=O)N1)C(=O)N[C@@H](CC(C)C)C(=O)N[C@@H](CCCNC(=N)N)C(=O)N1CCC[C@H]1C(=O)NCC`, the Rf was 0.38 in [9]; 0.4 in [1]; 0.39 in data set [2]; 0.72 in data set [4]; 0.43 in data set [5]; 0.42 in data set [6]. The Rf was found to be 0.47 in [7] and 0.61 in data set [8]. The “fold change (FC)” value in data set [10] stood at 1038.

The values are drawn from ChEMBL document CHEMBL3272080, “Analogues of luteinizing hormone releasing factor modified at positions 2, 6, and 10” (J Med Chem, 1976).
